In brackets after ≈: the same amount, converted by molar mass.

The source of these data is patent publication EP2929883A1, “Pyrazole derivatives as dihydroorotate dehydrogenase (DHODH) inhibitors” (INSTITUT PASTEUR, priority 2014, dated 2015).

For this assay, the system named is measles virus. As to the kind of experiment: microbe, parasite or virus in culture. To be noted: Measles morbillivirus, 24 h.
In the case of `CCc1cnc(-n2nc(OC(C)C)c(Cc3cccc(F)c3)c2C)nc1` [example 11, 5-ethyl-2-(4-(3-fluorobenzyl)-3-isopropoxy-5-methyl-1H-pyrazol-1-yl)pyrimidine], the MIC50 was in the range of 0.0005 to 0.05 µM (≈ 0.000177 to 0.0177 µg/mL). `CCc1cnc(-n2nc(OC(C)C)c(Oc3c(F)cccc3F)c2C)c(F)c1` [example 5A, 2-(4-(2,6-difluorophenoxy)-3-isopropoxy-5-methyl-1H-pyrazol-1-yl)-5-ethyl-3-fluoropyridine] gave an MIC50 of 0.05 to 0.5 µM (≈ 0.0196 to 0.196 µg/mL). In turn, `CCc1cnc(-n2nc(OC(C)C)c(Oc3ccccc3F)c2C)nc1` [example 50, 5-ethyl-2-(4-(2-fluorophenoxy)-3-isopropoxy-5-methyl-1H-pyrazol-1-yl)pyrimidine] came in with an MIC50 of 0.0005 to 0.05 µM (≈ 0.000178 to 0.0178 µg/mL).

On to `Cc1c(Cc2ccccc2)c(=O)n(-c2ncc(Br)cn2)n1-c1ncc(Br)cn1` [example 44, 4-benzyl-1,2-bis(5-bromopyrimidin-2-yl)-5-methyl-1H-pyrazol-3(2H)-one], for which the MIC50 is 0.5 to 5 µM (≈ 0.251 to 2.51 µg/mL). As for `CCC(CC)Oc1nn(-c2ncc(C3CC3)cn2)c(C)c1Cc1ccccc1` [example 141, 2-(4-benzyl-5-methyl-3-(pentan-3-yloxy)-1H-pyrazol-1-yl)-5-cyclopropylpyrimidine], the MIC50 was in the range of 0.0005 to 0.05 µM (≈ 0.000188 to 0.0188 µg/mL). For `COc1nn(-c2ncc(C3CC3)cn2)c(C)c1Cc1ccccc1` [example 138, 2-(4-benzyl-3-methoxy-5-methyl-1H-pyrazol-1-yl)-5-cyclopropylpyrimidine] the value was 0.05 to 0.5 µM (≈ 0.016 to 0.16 µg/mL); for `CCOc1nn(-c2ncc(CC)cn2)c(CN2CCOCC2)c1Cc1ccccc1` [example 115, 4-((4-benzyl-3-ethoxy-1-(5-ethylpyrimidin-2-yl)-1H-pyrazol-5-yl)methyl)morpholine], more than 5 µM. For `COc1cc(-c2ccc(Cl)cc2Cl)n(-c2ccccn2)n1` [example 144, 2-(5-(2,4-dichlorophenyl)-3-methoxy-1H-pyrazol-1-yl)pyridine] the value was more than 5 µM; for `COc1ccc(-n2nc(OC(C)C)c(Oc3c(F)cccc3F)c2C)nn1` [example 174, 3-(4-(2,6-difluorophenoxy)-3-isopropoxy-5-methyl-1H-pyrazol-1-yl)-6-methoxypyridazine], 0.05 to 0.5 µM (≈ 0.0188 to 0.188 µg/mL). For the compound `CC(C)Oc1nn(-c2ccc(C3CC3)cn2)cc1S(=O)(=O)c1ccccc1` [example 180, 5-cyclopropyl-2-(3-isopropoxy-4-(phenylsulfonyl)-1H-pyrazol-1-yl)pyridine], the MIC50 lay within 0.05 to 0.5 µM (≈ 0.0192 to 0.192 µg/mL). On to `Cc1c(Oc2c(F)cccc2F)c(OC(C)C)nn1-c1ncccn1` [example 74, 2-(4-(2,6-difluorophenoxy)-3-isopropoxy-5-methyl-1H-pyrazol-1-yl)pyrimidine], for which the MIC50 was 0.5 to 5 µM (≈ 0.173 to 1.73 µg/mL). The value for `c1ccc(Oc2cn(-c3ncc(C4CC4)cn3)nc2C2CC2)cc1` [example 119, 5-cyclopropyl-2-(3-cyclopropyl-4-phenoxy-1H-pyrazol-1-yl)pyrimidine] was 0.0005 to 0.05 µM (≈ 0.000159 to 0.0159 µg/mL); that for `CCOc1nn(-c2ncc(CC)cn2)c(C)c1-c1ccc(F)cc1F` [example 154, 2-(4-(2,4-difluorophenyl)-3-ethoxy-5-methyl-1H-pyrazol-1-yl)-5-ethylpyrimidine] was more than 5 µM; that for `CCOc1nn(-c2ccccn2)c(C)c1Cc1ccccc1` [example 30, 2-(4-benzyl-3-ethoxy-5-methyl-1H-pyrazol-1-yl)pyridine] was more than 5 µM. With `CC(C)Oc1nn(-c2ccc(C3CC3)cn2)cc1[S+]([O-])c1ccccc1` (stereo not shown) [example 181, 5-cyclopropyl-2-(3-isopropoxy-4-(phenylsulfinyl)-1H-pyrazol-1-yl)pyridine], the MIC50 lay within 0.5 to 5 µM (≈ 0.184 to 1.84 µg/mL). `COCc1c(Cc2ccccc2)c(OC(C)C)nn1-c1ncc(C2CC2)cn1` [example 168, 2-(4-benzyl-3-isopropoxy-5-(methoxymethyl)-1H-pyrazol-1-yl)-5-cyclopropylpyrimidine] yielded an MIC50 of 0.05 to 0.5 µM (≈ 0.0189 to 0.189 µg/mL). Compound `CC(C)Oc1nn(-c2ccc(C3CC3)cn2)cc1C(O)c1ccccc1` (stereo not shown) [example 179, (1-(5-cyclopropylpyridin-2-yl)-3-isopropoxy-1H-pyrazol-4-yl)(phenyl)methanol] registered an MIC50 of 0.05 to 0.5 µM (≈ 0.0175 to 0.175 µg/mL). In turn, `CC(C)Oc1nn(-c2ncc(C3CC3)cc2F)cc1Oc1ccccc1` [example 70, 5-cyclopropyl-3-fluoro-2-(3-isopropoxy-4-phenoxy-1H-pyrazol-1-yl)pyridine] gave an MIC50 of 0.0005 to 0.05 µM (≈ 0.000177 to 0.0177 µg/mL).

In the case of `CCOc1cc(-c2ccc(Cl)cc2)n(-c2ccccn2)n1` [example 147, 2-(5-(4-chlorophenyl)-3-ethoxy-1H-pyrazol-1-yl)pyridine], the MIC50 was more than 5 µM. The value for `Cc1c(Oc2c(F)cccc2F)c(OC(C)C)nn1-c1cnc(C(C)(C)C)nc1` [example 131, 2-tert-butyl-5-(4-(2,6-difluorophenoxy)-3-isopropoxy-5-methyl-1H-pyrazol-1-yl)pyrimidine] was 0.05 to 0.5 µM (≈ 0.0201 to 0.201 µg/mL). Regarding `CCc1ccc(-n2nc(OC(C)C)c(Oc3c(F)cccc3F)c2C)nc1` [example 9B, 2-(4-(2,6-difluorophenoxy)-3-isopropoxy-5-methyl-1H-pyrazol-1-yl)-5-ethylpyridine], the MIC50 lay within 0.05 to 0.5 µM (≈ 0.0187 to 0.187 µg/mL).

As to `CCOc1nn(-c2ncc(C3CC3)cc2C#N)c(C)c1Cc1ccccc1` [example 36, 2-(4-benzyl-3-ethoxy-5-methyl-1H-pyrazol-1-yl)-5-cyclopropylnicotinonitrile], the MIC50 fell in the range of 0.05 to 0.5 µM (≈ 0.0179 to 0.179 µg/mL). Compound `Cc1c(Oc2cccnc2)c(OC(C)C)nn1-c1ncc(C2CC2)cn1` [example 110, 5-cyclopropyl-2-(3-isopropoxy-5-methyl-4-(pyridin-3-yloxy)-1H-pyrazol-1-yl)pyrimidine] registered an MIC50 of 0.5 to 5 µM (≈ 0.176 to 1.76 µg/mL).

Consider `COc1cc(-c2ccc(Cl)c(Cl)c2)n(-c2ccccn2)n1` [example 143, 2-(5-(3,4-dichlorophenyl)-3-methoxy-1H-pyrazol-1-yl)pyridine], for which the MIC50 is more than 5 µM. Regarding `CCOc1nn(-c2ccccn2)c(C)c1-c1ccccc1Cl` [example 155, 2-(4-(2-chlorophenyl)-3-ethoxy-5-methyl-1H-pyrazol-1-yl)pyridine], the MIC50 was more than 5 µM. The value for `Cc1c(Oc2c(F)cccc2F)c(OC(C)C)nn1-c1ccc(C2CC2)cn1` [example 9, 5-cyclopropyl-2-(4-(2,6-difluorophenoxy)-3-isopropoxy-5-methyl-1H-pyrazol-1-yl)pyridine] was 0.0005 to 0.05 µM (≈ 0.000193 to 0.0193 µg/mL); that for `CCCc1cnc(-n2nc(OCC)c(Cc3ccccc3)c2C)nc1` [example 27, 2-(4-benzyl-3-ethoxy-5-methyl-1H-pyrazol-1-yl)-5-propylpyrimidine] was 0.0005 to 0.05 µM (≈ 0.000168 to 0.0168 µg/mL). The value for `CCOc1nn(-c2ncc(CC)cn2)c(C)c1Oc1ccccc1F` [example 73, 2-(3-ethoxy-4-(2-fluorophenoxy)-5-methyl-1H-pyrazol-1-yl)-5-ethylpyrimidine] was 0.05 to 0.5 µM (≈ 0.0171 to 0.171 µg/mL). Compound `Cc1c(Oc2c(F)cccc2F)c(OC(C)C)nn1-c1ccccn1` [example 4, 2-(4-(2,6-difluorophenoxy)-3-isopropoxy-5-methyl-1H-pyrazol-1-yl)pyridine] yielded an MIC50 of more than 5 µM. In turn, `CCOc1nn(-c2ncc(CC)cn2)cc1I` [example 107, 2-(3-ethoxy-4-iodo-1H-pyrazol-1-yl)-5-ethylpyrimidine] registered an MIC50 of more than 5 µM. The value for `Cc1c(Oc2ccccc2F)c(OC(C)C)nn1-c1ncc(C2CC2)cc1F` [example 53, 5-cyclopropyl-3-fluoro-2-(4-(2-fluorophenoxy)-3-isopropoxy-5-methyl-1H-pyrazol-1-yl)pyridine] was 0.05 to 0.5 µM (≈ 0.0193 to 0.193 µg/mL).
